BindingDB's records for doi:10.1016/S0960-894X(01)80562-X (1994)

Target: Angiotensin-converting enzyme (Rattus norvegicus) (UniProt P47820)
Assay: In vitro inhibitory activity against angiotensin converting enzyme (ACE) in rat was determined

Chain of Angiotensin-converting enzyme (Rattus norvegicus) (P47820 whole entry, looked up): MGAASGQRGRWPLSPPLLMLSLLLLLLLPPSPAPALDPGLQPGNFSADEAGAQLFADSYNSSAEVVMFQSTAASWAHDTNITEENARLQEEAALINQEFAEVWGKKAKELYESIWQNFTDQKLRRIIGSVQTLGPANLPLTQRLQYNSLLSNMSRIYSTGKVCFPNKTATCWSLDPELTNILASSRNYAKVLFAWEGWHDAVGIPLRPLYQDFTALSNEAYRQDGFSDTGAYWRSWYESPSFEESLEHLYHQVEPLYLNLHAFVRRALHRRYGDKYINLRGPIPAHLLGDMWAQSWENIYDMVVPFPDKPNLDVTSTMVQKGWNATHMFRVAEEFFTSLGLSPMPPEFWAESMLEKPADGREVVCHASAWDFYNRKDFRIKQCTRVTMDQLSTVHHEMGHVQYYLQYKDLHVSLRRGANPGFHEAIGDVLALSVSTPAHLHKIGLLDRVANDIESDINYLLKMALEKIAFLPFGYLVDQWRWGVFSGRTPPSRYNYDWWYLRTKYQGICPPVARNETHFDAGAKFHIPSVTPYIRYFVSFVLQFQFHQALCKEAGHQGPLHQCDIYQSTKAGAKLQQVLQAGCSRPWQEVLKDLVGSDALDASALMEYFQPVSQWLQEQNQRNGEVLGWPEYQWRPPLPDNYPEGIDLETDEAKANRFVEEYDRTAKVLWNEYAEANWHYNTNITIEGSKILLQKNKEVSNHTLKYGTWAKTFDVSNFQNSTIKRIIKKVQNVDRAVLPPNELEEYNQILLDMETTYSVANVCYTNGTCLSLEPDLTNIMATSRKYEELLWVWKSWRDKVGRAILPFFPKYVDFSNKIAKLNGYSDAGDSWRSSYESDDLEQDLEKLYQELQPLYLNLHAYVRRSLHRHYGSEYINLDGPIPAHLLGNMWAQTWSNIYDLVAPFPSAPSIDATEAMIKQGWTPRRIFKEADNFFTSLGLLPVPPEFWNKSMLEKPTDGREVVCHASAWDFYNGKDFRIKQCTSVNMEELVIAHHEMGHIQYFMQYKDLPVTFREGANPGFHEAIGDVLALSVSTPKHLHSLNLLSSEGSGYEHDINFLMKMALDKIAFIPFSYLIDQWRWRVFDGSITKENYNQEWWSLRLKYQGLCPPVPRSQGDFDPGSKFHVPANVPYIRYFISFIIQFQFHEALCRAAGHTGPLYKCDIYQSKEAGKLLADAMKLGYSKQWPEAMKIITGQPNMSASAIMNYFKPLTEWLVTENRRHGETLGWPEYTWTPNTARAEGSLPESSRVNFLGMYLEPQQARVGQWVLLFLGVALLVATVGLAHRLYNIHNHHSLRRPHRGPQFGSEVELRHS

| IC50 [nM] | Structure (SMILES) |
| --- | --- |
| 20 | O=C(N[C@H]1CCC(=O)N2CC[C@@H](C(=O)O)N2C1=O)[C@@H](S)Cc1ccccc1 |
| 10 | CCCN1C(=O)CC[C@H](NC(=O)[C@@H](S)Cc2ccccc2)C(=O)N1CC(=O)O |
| 60 | O=C(O)CN1NCCC[C@H](NC(=O)[C@@H](S)Cc2ccccc2)C1=O |

Continued, compound first:

| Structure (SMILES) | IC50 [nM] |
| --- | --- |
| O=C(N[C@H]1CCC(=O)N2CCC[C@@H](C(=O)O)N2C1=O)[C@@H](S)Cc1ccccc1 | 7 |
| CN1C(=O)CC[C@H](NC(=O)[C@@H](S)Cc2ccccc2)C(=O)N1CC(=O)O | 16 |
| CN1CCC[C@H](NC(=O)[C@@H](S)Cc2ccccc2)C(=O)N1CC(=O)O | 16 |
| CCCN1CCC[C@H](NC(=O)[C@@H](S)Cc2ccccc2)C(=O)N1CC(=O)O | 6 |
| O=C(N[C@H]1CCCN2CC[C@@H](C(=O)O)N2C1=O)[C@@H](S)Cc1ccccc1 | 12 |
| O=C(N[C@H]1CCCN2CCC[C@@H](C(=O)O)N2C1=O)[C@@H](S)Cc1ccccc1 | 8 |
